Measured values taken from article PMC6678097, “Machilin A Inhibits Tumor Growth and Macrophage M2 Polarization Through the Reduction of Lactic Acid” (Cancers, 2019).

Assays:
CT26 tumors = experiment: Tumor allograft model, CT26 cells; type: in vivo, BALB/c mice; conditions: 1, 10, or 50 µg/g body weight intraperitoneally daily
Experimental: LLC and CT26 cells were suspended separately in PBS (5 × 10^5 cells/100 µL PBS) and inoculated in subcutaneously on the back of 7-week-old C57BL/6 mice and BALB/c mice respectively (Orient Bio Inc., Seongnam, Korea; n = 7). One day after the inoculation with tumor cells, mice of the control group (n = 7) were intraperitoneally administrated 100 µL of PBS per day for 18 days. Each of the MA-treated mice were intraperitoneally administrated 0.02, 0.2, or 1 mg MA, respectively, in 100 µL PBS per 20 g body weight, each day for 18 days. All mice were euthanized 19 days after inoculation with the tumor cells, and the tumors were excised and weighed. Length (l) and width (w) of each tumor were measured using a caliper, and the respective volume (V) was calculated according to the formula V = [(l × w^2)/2]. Tumors were immediately removed from euthanized mice and prepared for histological examinations. To test liver and kidney toxicity of MA, at the end of the in vivo allograft experiment blood was collected from each mouse and serum was separated. Biochemical analyses of aspartate aminotransferase (AST), alanine aminotransferase (ALT), creatinine, and blood urea nitrogen (BUN) were performed using a commercial service (Green Cross Co., Yongin, Korea). […]

[1] = tested on: RAW264.7 macrophage cells; experiment: Viability of macrophage cells, MTT; type: cell-based; conditions: direct treatment, 24 h
Experimental: (§1) Figure S10. The viabilities of HUVECs and RAW264.7 cells on MA. (A) HUVECs were treated with indicated concentration of machilin A for 24 h. The viabilities of cells were evaluated by MTT assay.
(§2) (B ) HUVECs seeded to the Matrigel-coated wells treated with machilin A for 24 h. ( C) Raw 264.7 macrophage cells were treated with indicated concentration of machilin A for 24 h. The viabilities of cells were evaluated by MTT assay.
(§3) (1 picture or pasted object on this page, not shown here)

HT29 cells = experiment: Mitochondrial ROS, MitoSOX FACS; type: cell-based, human; conditions: 24 h
Experimental: The production of mitochondrial ROS was determined by MitoSOX™ Red (Thermo Fisher Scientific, Waltham, MA, USA), respectively. Briefly, 5 μM MitoSOX™ Red was added to each cells cultured in conditioned medium and incubated at 37 °C for 10 min. The cells were then washed twice with PBS and the fluorescence intensity was analyzed using a BD FACS Canto II (BD Biosciences, San Jose, CA, USA) measuring excitation/emission at wavelength of 510/580 nm.

HUVECs = experiment: Growth (MTT) and tube formation of endothelial cells, direct treatment; type: cell-based, human; conditions: 24 h
Experimental: as §1, §2, §3

MCF-7 = experiment: Cell viability, MTT assay; type: cell-based; conditions: Homo sapiens, MCF7, normoxic
Experimental: (§4) Human colon cancer cells (WiDr, DLD-1, RKO, and HT29) and murine Lewis lung carcinoma (LLC) cells were purchased from the American Type Culture Collection (Manassas, VA, USA). Human breast cancer MCF7 cells, human hepatocellular carcinoma cells (Huh-7, HepG2, and Hep3B), and human lung cancer cells (HCC-95 and NCI-H1793) were provided by the Korean Cell Line Bank (Seoul, Korea). The HCC-95 and NCI-H1793 cells were grown in a Roswell park memorial institute medium (RPMI) 1640 medium (HyClone^TM; GE Healthcare, Chicago, IL, USA). All other cells were grown in Dulbecco’s modified eagle medium (DMEM) supplemented with L-glutamine (200 mg/L), 10% (v/v) heat-inactivated fetal bovine serum (FBS; Sigma-Aldrich, St. Louis, MO, USA), and antibiotics (100 U/mL penicillin and 100 μg/mL streptomycin; Thermo Fisher Scientific, Waltham, MA, USA) in a humidified incubator at 37 °C and with 5% CO2 before the experiments. For induction of hypoxia condition (1% oxygen), the cells were cultured were cultured in the mixture of 94% nitrogen and 5% CO2/air at 37 °C for 24 h in cell culture incubator. Cytotoxicity of MA was evaluated using an MTT assay. Briefly, cells were incubated in 24-well plates with specified concentrations of MA for 24 or 48 h. Then, MTT solution (2.0 mg/mL) was added to each well. After 4 h of incubation at 37 °C and 5% CO2 in a cell culture incubator, the conditioned media were removed, and the amount of formazan crystals formed in living cells was estimated by measuring the absorbance at 540 nm using a microplate reader (Spectramax M2; Molecular Devices, CA, USA). The respective percentages of living cells were compared with a control treatment.

Huh7 = experiment: Cell viability, MTT assay; type: cell-based; conditions: Homo sapiens, Huh-7, normoxic
Experimental: as §4

DLD-1 = experiment: Cell viability, MTT assay; type: cell-based; conditions: Homo sapiens, normoxic
Experimental: as §4

WiDr = experiment: Cell viability, MTT assay; type: cell-based; conditions: Homo sapiens, normoxic
Experimental: as §4

HCC-95 = experiment: Cell viability, MTT assay; type: cell-based; conditions: Homo sapiens, HCC95, normoxic
Experimental: as §4

HepG2 = experiment: Cell viability, MTT assay; type: cell-based; conditions: Homo sapiens, normoxic
Experimental: as §4

RKO = experiment: Cell viability, MTT assay; type: cell-based; conditions: Homo sapiens, normoxic
Experimental: as §4

NCI-H1793 = experiment: Cell viability, MTT assay; type: cell-based; conditions: Homo sapiens, normoxic
Experimental: as §4

[2] = tested on: human liver cytochrome P450 2B6; conditions: cited from earlier work
LDHB = LDHB (Homo sapiens, UniProt P07195); experiment: LDHB activity (data not shown); type: biochemical; conditions: concentrations of up to 500 μM
Sequence of LDHB (P07195 whole entry, species assumed): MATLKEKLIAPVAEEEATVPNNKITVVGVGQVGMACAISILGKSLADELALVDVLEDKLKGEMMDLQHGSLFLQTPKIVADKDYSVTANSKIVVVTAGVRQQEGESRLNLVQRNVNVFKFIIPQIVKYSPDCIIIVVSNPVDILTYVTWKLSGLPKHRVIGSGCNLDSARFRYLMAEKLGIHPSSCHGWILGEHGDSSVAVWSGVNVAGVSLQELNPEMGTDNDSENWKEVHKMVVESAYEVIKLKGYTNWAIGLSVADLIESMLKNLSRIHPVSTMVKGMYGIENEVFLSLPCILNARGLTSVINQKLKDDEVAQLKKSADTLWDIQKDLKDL

Hep3B = experiment: Cell viability, MTT assay; type: cell-based, human
Experimental: as §4

HT29 = experiment: Cell viability, MTT assay; type: cell-based, human
Experimental: as §4

[3] = hypoxic and normoxic conditions, 48 h

In the case of C[C@H](Cc1ccc2c(c1)OCO2)[C@@H](C)Cc1ccc2c(c1)OCO2 [MA, bis(3,4-methylenedioxy)-8,8’-lignan], the “volume, weight, and size of tumors” value (CT26 tumors) is reported as “significantly reduced”, the “growth of RAW264.7 macrophage cells” value [1] is reported as “did not directly inhibit” and the “mitochondrial ROS” value (HT29 cells) is reported as “induced mitochondrial ROS”. The “growth and tube formation of endothelial cells” value (HUVECs) was “did not directly inhibit”, the IC50 (MCF-7) was 217 ± 12.9 µM and the IC50 (Huh7) was 198 ± 26.7 µM. It also gave an IC50 (DLD-1) of 423 ± 17.6 µM, an IC50 (WiDr) of 17.2 ± 5.75 µM and an IC50 (HCC-95) of 228 ± 13.9 µM. The IC50 (HepG2) was 156 ± 23.2 µM, the IC50 (RKO) was 192 ± 15.2 µM and the IC50 (NCI-H1793) was 96.7 ± 5.32 µM. For the same compound, the “inhibitory effect on drug metabolism” value [2] was “selective inhibitory effect”, the “effect on LDHB activity” value (LDHB) was “did not affect LDHB activity” and the IC50 (Hep3B; Homo sapiens, normoxic) was 140 ± 8.55 µM. The growth of cells (Hep3B; [3]) was “substantially inhibited the growth”, the IC50 (HT29; Homo sapiens, HT-29, normoxic) was 107 ± 4.66 µM and the growth of cells (HT29; [3]) was “substantially inhibited the growth”.
